Test results reported in patent US7320975B2, “2-(2-pyridyl)-5-phenyl-6-aminopyrimidine, method and intermediate products for the production and use thereof for combating noxious fungi” (BASF Aktiengesellschaft, priority 2002, dated 2008).

Test: Lipophilicity parameter log Pow by RP HPLC run time method (OECD test guidelines)
Assay type: physicochemical
Protocol: The determination of the lipophilicity parameter log Pow (Table I) was carried out in accordance with OECD test guidelines using the RP HPLC run time method.
To this end, a log k′/log Pow correlation curve based on ten reference substances was plotted and was validated with the help of the lipophilicity parameters of eight comparison substances established through the extraction method.
A commercially available reversed-phase C18 stationary phase was used as stationary phase. Chromatographic separation was carried out with methanol and a buffer solution as mobile phase at pH 7.4 under isocratic conditions.
The retention times of the standards tR were converted in accordance with equation Φ into the capacity factors k′, in which t0, as reaction time of the solvent unretarded on the reversed-phase C18 stationary phase, represents the dead time of the chromatographic system:
The linear correlation of the log k′ values with the log Pow values of the standards published in the appendix to the guidelines 92/69/EEC yields the correlation curve through linear regression.
The lipophilicity parameters log Pow of the analytes were after calculation of the logarithmic capacity factor log k′ interpolated from the correlation curve of the standards.

[1] = RP HPLC run time method (OECD test guidelines)
[2] = RP HPLC run time method, OECD test guidelines

Row | Compound | log Pow [1] | log Pow [2]
1 | CCN(CC)c1nc(-c2ccccn2)nc(Cl)c1-c1c(F)cc(F)cc1F [1-9] | log Pow 4.08 | 
2 | CCN(CC)c1nc(-c2ccccn2)nc(Cl)c1-c1c(F)cc(OC)cc1F [I-64] | logP 5.0 | logP 5.0
3 | C[C@H](Nc1nc(-c2ccccn2)nc(Cl)c1-c1c(F)cc(F)cc1F)C(F)(F)F [I-12] | log Pow 4.5 | logPow 4.5
4 | CCN(CC)c1nc(-c2ccccn2)nc(Cl)c1-c1c(F)cc(F)cc1F [I-9] |  | logPow 4.08
5 | CCN(CC)c1nc(-c2ncccc2C)nc(Cl)c1-c1c(F)cc(F)cc1F [I-117] | logP 4.6 | logP 4.6
6 | CC(C)Nc1nc(-c2ccccn2)nc(Cl)c1-c1c(F)cc(O)cc1F [I-70] | log.P 3.0 | log.P 3.0
7 | Cc1cccc(-c2nc(Cl)c(-c3c(F)cc(F)cc3F)c(N3CCOCC3)n2)n1 [I-24] | log Pow 4.25 | logPow 4.25
8 | C[C@H](Nc1nc(-c2ccccn2)nc(Cl)c1-c1c(F)cc(F)cc1F)C(C)(C)C [1-10] | log Pow 4.75 | 

Further lines, results first:

Row | log Pow [1] | log Pow [2] | Compound
9 | logP 4.1 | logP 4.1 | CCNc1nc(-c2ccccn2)nc(Cl)c1-c1ccc(F)cc1C [I-114]
10 | logP 4.7 | logP 4.7 | CCN(CC)c1nc(-c2ccccn2)nc(Cl)c1-c1c(F)cccc1F [I-81]
11 | logP 4.0 | logP 4.0 | CCNc1nc(-c2ccccn2)nc(Cl)c1-c1c(F)cc(OC)cc1F [I-65]
12 | log Pow 4.73 | logPow 4.73 | C=C(C)CN(CC)c1nc(-c2ccccn2)nc(Cl)c1-c1c(F)cccc1Cl [I-2]
13 | logP 5.0 | logP 5.0 | CC(C)[C@@H](C)Nc1nc(-c2ccccn2)nc(Cl)c1-c1c(F)cccc1F [I-84]
14 | logP 4.6 | logP 4.6 | CCNc1nc(-c2ccccn2)nc(Cl)c1-c1ccc(C)cc1C [I-90]
15 | log Pow 4.8 | logPow 4.8 | C[C@@H](Nc1nc(-c2ccccn2)nc(Cl)c1-c1c(F)cccc1Cl)C(C)(C)C [I-7]
16 | log Pow 3.59 | logPow 3.59 | CC(C)Nc1nc(-c2ccccn2)nc(Cl)c1-c1c(F)cccc1Cl [I-3]
17 | logP 5.0 | logP 5.0 | CC(C)[C@H](C)Nc1nc(-c2ccccn2)nc(Cl)c1-c1c(F)cccc1F [I-82]
18 | log Pow 4.23 | logPow 4.23 | CCN(CC)c1nc(-c2ccccn2)nc(Cl)c1-c1c(F)cccc1Cl [I-5]
19 | logP 4.8 | logP 4.8 | Cc1ccc(-c2c(Cl)nc(-c3ccccn3)nc2NC(C)C)c(F)c1 [I-94]
20 | logP 4.1 | logP 4.1 | CC(C)Nc1nc(-c2ccccn2)nc(Cl)c1-c1c(F)cccc1F [I-83]
